Laboratory results as given in patent publication US20240400560A1, “BICYCLIC HETEROCYCLIC DERIVATIVE HAVING VIRAL GROWTH INHIBITORY ACTIVITY AND PHARMACEUTICAL COMPOSITION CONTAINING SAME” (Shionogi & Co., Ltd., priority 2021, published 2024).
Like-named read-outs stand apart in the source and are kept apart here.

Key:
SARS-CoV-2 = experiment: Inhibitory activity of cytopathic effect (CPE) in HEK293T/ACE2-TMPRSS2 cells; format: cell-based; conditions: Severe acute respiratory syndrome coronavirus 2, HEK-293T, 72 h
SARS-CoV-2 3CL protease = SARS-CoV-2 3CL protease (Severe acute respiratory syndrome coronavirus 2, UniProt P0DTD1); experiment: Inhibitory activity test against SARS-CoV-2 3CL proteases; format: biochemical
[1] = 50% SARS-CoV-2 infected cell death inhibitory concentration, HEK293T/ACE2-TMPRSS2 cells, CellTiter-Glo 2.0 after 3 days culture, read-out: EC50
[2] = read-out: IC50 (50% SARS-CoV-2 3CL protease inhibitory concentration)
[3] = HEK293T/ACE2-TMPRSS2 cells, cultured 3 days, CellTiter-Glo 2.0 luminescence, read-out: EC50 (50% SARS-CoV-2 infected cell death inhibitory concentration)
[4] = IC50 (50% SARS-CoV-2 3CL protease inhibitory concentration)

Compound | EC50 (SARS-CoV-2; [1]) [nM] | IC50 (SARS-CoV-2 3CL protease; [2]) [nM] | EC50 (SARS-CoV-2; [3]) [nM] | IC50 (SARS-CoV-2 3CL protease; [4]) [nM] | EC50 (SARS-CoV-2; read-out: EC50 (50% SARS-CoV-2 infected cell death inhibitory concentration)) [nM]
Cn1cnc(Cn2c(=O)c3c4nccnc4c(-c4cc(C(C)(C)O)ccc4Cl)cc3n(Cc3cc(F)c(F)c(Cl)c3)c2=O)n1 [Compound I-0810] | 19.4 | 1.3 |  |  | 
CCOc1nc2c(=O)n(Cc3ncn(C)n3)c(=O)n(Cc3cc(F)c(F)c(F)c3)c2cc1-c1cc(C#N)ccc1Cl [Compound I-0692] |  | < 100 | < 100 |  | 
COc1nc(N2CC[C@@H](C#N)C2)cc2c1c(=O)n(Cc1ncn(C)n1)c(=O)n2Cc1cc(F)c(F)c(F)c1 [Compound I-0598] | 13.6 | 18 |  |  | 
Cc1cnc2c3c(=O)n(Cc4ncn(C)n4)c(=O)n(Cc4cc(F)c(F)c(F)c4)c3cc(-c3cc(C#N)ccc3Cl)n12 [Compound I-0643] | 520 | 4.3 |  |  | 
COc1nc(N2C[C@@H]3C[C@H]2CO3)cc2c1c(=O)n(-c1cncc(C#N)c1)c(=O)n2-c1ccc(F)c(Cl)c1 [Compound I-0940] | 5.66 | 1.7 |  |  | 
COc1nc(N2CCC(O)(C(F)F)C2)cc2c1c(=O)n(-c1cnc3cc(F)ccn13)c(=O)n2-c1ccc(F)c(Cl)c1 (stereo not drawn) [Compound I-1056] |  | < 100 | < 100 |  | 
COc1nc(N2CC(F)(F)C2)cc2c1c(=O)n(-c1cnc3cc(F)ccn13)c(=O)n2-c1ccc(F)c(Cl)c1 [Compound I-1035] |  |  | < 100 | < 100 | 
COc1cc(-c2cc([C@H](C)O)ccc2Cl)cc2c1c(=O)n(Cc1ncn(C)n1)c(=O)n2Cc1cc(F)c(F)c(F)c1 [Compound I-0840] |  | < 100 | < 100 |  | 
COc1nc(N2CC[C@@H](C(C)(C)O)C2)cc2c1c(=O)n(-c1cncc(Cl)c1)c(=O)n2-c1ccc(F)c(Cl)c1 [Compound I-1059] |  | < 100 | < 100 |  | 
[2H]C([2H])([2H])O[C@@H]1CCN(c2cc3c(c(OC)n2)c(=O)n(-c2cncc(OCF)c2)c(=O)n3-c2ccc(F)c(Cl)c2)C1 [Compound I-0963] |  | < 100 | < 100 |  | 
Cn1cnc(Cn2c(=O)c3c4c(c(N5CCCC5=O)cc3n(Cc3cc(F)c(F)c(Cl)c3)c2=O)CCO4)n1 [Compound I-0871] | 11 | 6.6 |  |  | 
COc1nc2c(=O)n(Cc3ncn(C)n3)c(=O)n(Cc3cc(C#N)ccc3C)c2cc1-c1cc(C#N)ccc1Cl [Compound I-0549] |  | < 100 | 100 to 1000 |  | 
COc1nc(NC2CC2)cc2c1c(=O)n(-c1cnc3cc(F)ccn13)c(=O)n2-c1ccc(F)c(Cl)c1 [Compound I-1029] |  | < 100 | < 100 |  | 
COc1nc(N2CC[C@@H](O)C2)cc2c1c(=O)n(-c1cncc(F)c1)c(=O)n2-c1ccc(F)c(F)c1 [Compound I-1044] |  | < 100 | < 100 |  | 
COc1nc(N2[C@@H]3CC[C@H]2CNC3)cc2c1c(=O)n(-c1cnc3ccccn13)c(=O)n2Cc1cc(F)c(F)c(F)c1 [Compound I-0646] |  |  |  | < 100 | < 100
CCN(CC)c1cc2c(c(OC)n1)c(=O)n(-c1cnc3cc(F)ccn13)c(=O)n2-c1ccc(F)c(Cl)c1 [Compound I-1058] |  | < 100 | < 100 |  | 
Cn1cnc(Cn2c(=O)c3c4nccnc4c(-c4cc(C#N)ccc4Cl)cc3n(Cc3cc(F)c(F)c(Cl)c3)c2=O)n1 [Compound I-0809] |  | < 100 | < 100 |  | 
Cn1cnc(Cn2c(=O)c3c4nccnc4c(N4CC[C@@H](O)C4)cc3n(Cc3cc(F)c(F)c(F)c3)c2=O)n1 (racemic) [Compound I-0552] |  | < 100 | 100 to 1000 |  | 
COc1nc(N2CC[C@H](CO)C2)cc2c1c(=O)n(-c1cnc3cc(F)ccn13)c(=O)n2-c1ccc(F)c(Cl)c1 [Compound I-0749] |  | < 100 | < 100 |  | 
COc1nc(N2CC[C@@H](C#N)C2)cc2c1c(=O)n(-c1cnc3cc(F)ccn13)c(=O)n2Cc1cc(F)c(F)c(Cl)c1 [Compound I-0736] | 20.1 | 12 |  |  | 
COc1nc(N2CC[C@@H](C#N)C2)cc2c1c(=O)n(-c1cnc3cc(F)ccn13)c(=O)n2Cc1cc(F)c(F)c(F)c1 [Compound I-0732] |  | < 100 | < 100 |  | 
